From US8546389B2 (priority 2010, dated 2013)
pEC50, pIC50: −log10 of the molar value.

Columns and labels:
1b (BK) NS5bΔ21 = 1b (BK) NS5bΔ21 (Hepatitis C virus genotype 1b (isolate BK) (HCV), UniProt P26663); test: HCV polymerase inhibition assay, genotype 1b; type: biochemical, HCV genotype 1b (BK); details: 1b (BK) NS5bΔ21, 33P-GTP incorporation; read-out: 1b polymerase IC50 (range class)
Procedure: HCV polymerase reactions were carried out using a modified method of Howe et al., Antimicrobial Agents and Chemotherapy 2004 48(12): 4813-4821. Reactions contained a final concentration of, 0.5% DMSO, 50 nM, 1b (BK) NS5bΔ21, 20 mM Tris-HCl pH 7.5, 5 mM MgCl2, 5 mM MnCl2, 3 mM DTT, 0.05% BSA, 0.2 U/μL RNasin, 10 μg/mL Poly(rC) template, GTP (at Km) and 0.05 μCi/μL ^33P-GTP in a total reaction volume of 50 μL. Compounds were tested in a three fold dilution series, for example starting from 50 μM. Reactions were initiated with the addition of GTP and terminated after 1 hour with 50 μL ice cold 0.2 M EDTA. Terminated reactions were transferred to DEAE 96-well filter plates, unincorporated nucleotides washed from the filters and 50 μL scintillation fluid added prior to reading on a scintillation counter. Similarly, a genotype 3a (VRL-69) NS5bΔ21 polymerase enzyme assay was conducted using essentially the same method.
The compound concentration that reduced ^33P-GTP incorporation by 50% (IC50) was calculated using non-linear regression.

[1] = system: genotype 1b (Con 1) subgenomic replicon cell line; test: HCV replicon assay, genotype 1b (Renilla luciferase); type: cell-based, HCV genotype 1b (Con 1); details: Hepatitis C virus; genotype 1b replicon, 72 hours, luciferase; read-out: genotype 1b EC50 (range class)
Procedure: A genotype 1b (Con 1) subgenomic replicon cell line based on Blight et al., Science 2000 290: 1972-1974, modified to express a Renilla luciferase reporter gene was used to assess antiviral activity of test compounds. Cell cultures were maintained in a sub-confluent state in DMEM with glutamine, 10% heat-inactivated foetal bovine serum (FBS) and G418 (Geneticin®).
For assay, cells were seeded at a density of 7000 cells/well into 96 well tissue culture trays in culture media lacking G418. Compounds were tested in a three fold dilution series, for example starting from 50 uM. After 72 hours incubation at 37° C. and 5% CO2, Renilla luciferase activity was quantified via the Promega Renilla Luciferase or Renilla-Glo™ Luciferase Assay Systems (Promega corporation. The same method was employed for replicon assays using subgenomic genotype 1a and 2a replicon cell lines with a seeding cell density of 5000 cells/well for the 2a cell lines.
The compound concentration that reduced luciferase activity by 50% (EC50) was calculated using non-linear regression.

Sequence of 1b (BK) NS5bΔ21 (P26663 2420-2989): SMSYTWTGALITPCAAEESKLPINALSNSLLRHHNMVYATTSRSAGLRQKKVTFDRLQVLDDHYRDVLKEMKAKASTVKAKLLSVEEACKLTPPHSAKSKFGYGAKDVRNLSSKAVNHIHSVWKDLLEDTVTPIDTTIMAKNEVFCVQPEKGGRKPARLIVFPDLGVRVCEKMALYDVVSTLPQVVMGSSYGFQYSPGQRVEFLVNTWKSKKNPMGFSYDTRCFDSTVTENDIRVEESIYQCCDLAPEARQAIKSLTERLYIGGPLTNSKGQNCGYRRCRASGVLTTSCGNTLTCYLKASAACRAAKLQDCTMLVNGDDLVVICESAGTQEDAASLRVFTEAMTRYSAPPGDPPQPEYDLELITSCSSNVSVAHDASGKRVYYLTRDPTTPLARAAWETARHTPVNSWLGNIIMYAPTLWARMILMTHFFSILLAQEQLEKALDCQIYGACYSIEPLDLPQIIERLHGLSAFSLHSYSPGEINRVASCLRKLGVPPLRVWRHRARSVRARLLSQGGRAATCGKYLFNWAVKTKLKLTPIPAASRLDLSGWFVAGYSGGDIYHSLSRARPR

SMILES | pIC50 (1b (BK) NS5bΔ21) | pEC50 [1]
CCN(C(C)=O)c1cc2nn(-c3ccc(Br)cc3)c(C(=O)NC)c2cc1C1CC1 [Compound 48, 6-[Acetyl(ethyl)amino]-2-(4-bromophenyl)-5-cyclopropyl-N-methyl-2H-indazole-3-carboxamide] | 4.30 to 5.00 | 5.00 to 6.00
CNC(=O)c1c2cc(C3CC3)c(N(CCCNC(=O)[C@H]3CCCC[C@@H]3C(=O)O)S(C)(=O)=O)cc2nn1-c1ccc(Br)cc1 [Compound 187] | > 6.00 | 5.00 to 6.00
C=Cc1cc2c(C(=O)NC)n(-c3ccc(F)cc3)nc2cc1N(CC)S(C)(=O)=O [Compound 71, 5-Ethenyl-6-[ethyl(methylsulfonyl)amino]-2-(4-fluorophenyl)-N-methyl-2H-indazole-3-carboxamide] | 5.00 to 6.00 | 5.00 to 6.00
CCCc1cc2c(C(=O)NC)n(-c3ccc(F)cc3)nc2cc1N(CC)S(C)(=O)=O [Compound 145] | 5.00 to 6.00 | 5.00 to 6.00
CNC(=O)c1c2cc(C3CC3)c(N(CCCOC(=O)c3ccccc3C(=O)O)S(C)(=O)=O)cc2nn1-c1ccc(Oc2ccc(F)cc2)cc1 [Compound 115] | > 6.00 | 5.00 to 6.00
CNC(=O)c1c2cc(C3CC3)c(N(CCCNC(=O)CCC(=O)O)S(C)(=O)=O)cc2nn1-c1ccc(Nc2ccc(F)cc2)cc1 [Compound 58, 4-[(3-{[5-Cyclopropyl-2-{4-[(4-fluorophenyl)amino]phenyl}-3-(methylcarbamoyl)-2H-indazol-6-yl](methylsulfonyl)amino}propyl)amino]-4-oxobutanoic acid] | > 6.00 | 4.30 to 5.00
CNC(=O)c1c2cc(C3CC3)c(N(CCCC(=O)Oc3ccccc3)S(C)(=O)=O)cc2nn1-c1ccc(Br)cc1 [Compound 93, phenyl 4-{[2-(4-bromophenyl)-5-cyclopropyl-3-(methylcarbamoyl)-2H-indazol-6-yl](methylsulfonyl)amino}butanoate] | > 6.00 | 5.00 to 6.00
CNC(=O)c1c2cc(C3CC3)c(N(CCCOC(C)=O)S(C)(=O)=O)cc2nn1-c1ccc(Nc2ccc(F)cc2)cc1 [Compound 116] | > 6.00 | > 6.00
CCN(c1cc2nn(-c3ccc(NC(C)C)cc3)c(C(=O)NC)c2cc1C1CC1)S(C)(=O)=O [Compound 38] | 5.00 to 6.00 | > 6.00
CNC(=O)c1c2cc(C3CC3)c(N(CCCNC(=O)[C@H]3CCCC[C@H]3C(=O)O)S(C)(=O)=O)cc2nn1-c1ccc(Br)cc1 [Compound 251] | > 6.00 | > 6.00
CCN(c1cc2nn(-c3ccc(F)cc3)c(C(=O)NC)c2cc1C1=CCOCC1)S(C)(=O)=O [Compound 142] | 4.30 to 5.00 | 5.00 to 6.00
CNC(=O)c1c2cc(C3CC3)c(N(CCC(=O)N(C)C)S(C)(=O)=O)cc2nn1-c1ccc(Br)cc1 [Compound 155] | > 6.00 | 5.00 to 6.00
CNC(=O)c1c2cc(C3CC3)c(N(CCCNC(=O)c3ccccc3C(=O)O)S(C)(=O)=O)cc2nn1-c1ccc(Br)cc1 [Compound 147] | > 6.00 | 5.00 to 6.00
CNC(=O)c1c2cc(C3CC3)c(N3CCCCC3=O)cc2nn1-c1ccc(Nc2ccc(F)cc2)cc1 [Compound 127] | 4.30 to 5.00 | 5.00 to 6.00
CCN(c1cc2nn(-c3ccccc3)c(C(=O)NC)c2cc1OC)S(C)(=O)=O [Compound 125] | 4.30 to 5.00 | 5.00 to 6.00
CNC(=O)c1c2cc(C3CC3)c(N(CCO)S(C)(=O)=O)cc2nn1-c1ccc(Nc2ccc(F)cc2)cc1 [Compound 19] | > 6.00 | > 6.00
CNC(=O)c1c2cc(C3CC3)c(N(CCO)S(C)(=O)=O)cc2nn1-c1ccc(Oc2ccccc2F)cc1 [Compound 18] | 5.00 to 6.00 | 5.00 to 6.00
CCN(c1cc2nn(-c3ccc(Br)cc3)c(C(=O)NC)c2cc1C1CC1)S(C)(=O)=O [Compound 20] | > 6.00 | > 6.00

SMILES | pIC50 (1b (BK) NS5bΔ21) | pEC50 [1]
CNC(=O)c1c2cc(C3CC3)c(N(CCCC(=O)O)S(C)(=O)=O)cc2nn1-c1ccc(Br)cc1 [Compound 89, 4-{[2-(4-bromophenyl)-5-cyclopropyl-3-(methylcarbamoyl)-2H-indazol-6-yl](methylsulfonyl)amino}butanoic acid] | > 6.00 | 4.30 to 5.00
CNC(=O)c1c2cc(C3CC3)c(N(CCCNC(=O)[C@H]3CCC[C@H]3C(=O)OC)S(C)(=O)=O)cc2nn1-c1ccc(Br)cc1 [Compound 215] | > 6.00 | > 6.00
CNC(=O)c1c2cc(C3CC3)c(N(CCCF)S(C)(=O)=O)cc2nn1-c1ccc(Cl)cc1 [Compound 57, 2-(4-chlorophenyl)-5-cyclopropyl-6-[3-fluoropropyl(methylsulfonyl)amino]-N-methyl-2H-indazole-3-carboxamide] | > 6.00 | > 6.00
CNC(=O)c1c2cc(C3CC3)c(N(CCCC(=O)NS(=O)(=O)C(F)(F)F)S(C)(=O)=O)cc2nn1-c1ccc(Br)cc1 [Compound 196] | > 6.00 | 5.00 to 6.00
CNC(=O)c1c2cc(C3CC3)c(N(CCC(F)(F)F)S(C)(=O)=O)cc2nn1-c1ccc(Br)cc1 [Compound 233] | > 6.00 | > 6.00
CNC(=O)c1c2cc(C3CC3)c(N(CCCNC(=O)[C@H]3C[C@H]3C(=O)OC)S(C)(=O)=O)cc2nn1-c1ccc(Br)cc1 [Compound 204] | > 6.00 | > 6.00
CNC(=O)c1c2cc(C3CC3)c(N(CCC3CCOC3)S(C)(=O)=O)cc2nn1-c1ccc(Cl)cc1 (stereo not shown) [Compound 257] | 5.00 to 6.00 | > 6.00
CNC(=O)c1c2cc(C3CC3)c(N(CCCC(=O)O)S(C)(=O)=O)cc2nn1-c1ccc(Cl)cc1 [Compound 208] | > 6.00 | 4.30 to 5.00
CCCN(c1cc2nn(-c3ccc(Oc4ccc(F)cc4)cc3)c(C(=O)NC)c2cc1C1CC1)S(C)(=O)=O [Compound 113] | > 6.00 | > 6.00
CCN(c1cc2nn(-c3ccc(F)cc3)c(C(=O)NC)c2cc1C#CCO)S(C)(=O)=O [Compound 75, 6-[Ethyl(methylsulfonyl)amino]-2-(4-fluorophenyl)-5-(3-hydroxyprop-1-yn-1-yl)-N-methyl-2H-indazole-3-carboxamide] | 5.00 to 6.00 | 4.30 to 5.00
CNC(=O)c1c2cc(C3CC3)c(N(CCO)S(C)(=O)=O)cc2nn1-c1ccc(Nc2ccccc2)cc1 [Compound 27] | > 6.00 | > 6.00
CNC(=O)c1c2cc(C3CC3)c(N(CCCOC)S(C)(=O)=O)cc2nn1-c1ccc(Br)cc1 [Compound 213] | > 6.00 | > 6.00
CNC(=O)c1c2cc(C3CC3)c(N(CCCC(=O)OCOC(=O)C(C)(C)C)S(C)(=O)=O)cc2nn1-c1ccc(Br)cc1 [Compound 94, [(2,2-dimethylpropanoyl)oxy]methyl 4-{[2-(4-bromophenyl)-5-cyclopropyl-3-(methylcarbamoyl)-2H-indazol-6-yl](methylsulfonyl)amino}butanoate] | > 6.00 | 5.00 to 6.00
CCOC(=O)CCCN(c1cc2nn(-c3ccc(C)cc3)c(C(=O)NC)c2cc1C1CC1)S(C)(=O)=O [Compound 230] | > 6.00 | > 6.00
CNC(=O)c1c2cc(C3CC3)c(N(CCCO)S(C)(=O)=O)cc2nn1-c1ccc(C)c(F)c1 [Compound 206] | > 6.00 | > 6.00
CNC(=O)c1c2cc(C3CC3)c(N(CC(F)F)S(C)(=O)=O)cc2nn1-c1ccc(Cl)cc1 [Compound 254] | > 6.00 | > 6.00
CNC(=O)c1c2cc(C3CC3)c(N(CCCO)S(C)(=O)=O)cc2nn1-c1ccc(Oc2ccc(F)cc2)cc1 [Compound 30] | > 6.00 | > 6.00
